Test results taken from ChEMBL document CHEMBL1145055, “A novel class of nonpeptidic biaryl inhibitors of human cathepsin K” (J Med Chem, 2003).

Columns and labels:
Cathepsin K [1] = target: T1, Cathepsin K (Homo sapiens, UniProt P43235); assay: In vitro inhibitory activity against human cathepsin K, using 2 uM of Z -Leu-Arg-AMC as substrate
T1 sequence (P43235 whole entry): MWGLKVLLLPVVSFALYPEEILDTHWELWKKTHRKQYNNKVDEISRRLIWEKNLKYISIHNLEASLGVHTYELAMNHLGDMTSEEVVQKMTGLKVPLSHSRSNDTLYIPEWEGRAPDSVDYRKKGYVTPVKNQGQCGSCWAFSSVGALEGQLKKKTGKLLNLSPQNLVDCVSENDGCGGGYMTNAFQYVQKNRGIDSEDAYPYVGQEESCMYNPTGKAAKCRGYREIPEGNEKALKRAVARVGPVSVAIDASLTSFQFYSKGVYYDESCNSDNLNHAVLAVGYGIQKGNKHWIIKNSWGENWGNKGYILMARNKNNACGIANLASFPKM

Cathepsin S = Cathepsin S (Homo sapiens, UniProt P25774); assay: In vitro inhibitory activity against human cathepsin S, using 2 uM of Z -Leu-Arg-AMC as substrate
Cathepsin B = Cathepsin B (Homo sapiens, UniProt P07858); assay: In vitro inhibitory activity against human cathepsin B, using 2 uM of Z -Leu-Arg-AMC as substrate
Bos taurus = organism: Bos taurus; assay: cells
Description: In vitro Bone resorption; measuring degradation of bovine bone by isolated osteoclasts

Procathepsin L = Procathepsin L (Homo sapiens, UniProt P07711); assay: In vitro inhibitory activity against human cathepsin L, using 2 uM of Z -Leu-Arg-AMC as substrate
Cathepsin K [2] = target: T1, Cathepsin K; assay: In vitro inhibitory activity against Human Cathepsin K using 2 uM of Z -Leu-Arg-AMC as substrate
[3] = target: T2, Cathepsin K (Homo sapiens) (UniProt P43235); assay: Pre steady state kinetic parameter K off was determined
T2 sequence (whole entry): T1 sequence (P43235 whole entry)

Chain of Cathepsin S (P25774 whole entry): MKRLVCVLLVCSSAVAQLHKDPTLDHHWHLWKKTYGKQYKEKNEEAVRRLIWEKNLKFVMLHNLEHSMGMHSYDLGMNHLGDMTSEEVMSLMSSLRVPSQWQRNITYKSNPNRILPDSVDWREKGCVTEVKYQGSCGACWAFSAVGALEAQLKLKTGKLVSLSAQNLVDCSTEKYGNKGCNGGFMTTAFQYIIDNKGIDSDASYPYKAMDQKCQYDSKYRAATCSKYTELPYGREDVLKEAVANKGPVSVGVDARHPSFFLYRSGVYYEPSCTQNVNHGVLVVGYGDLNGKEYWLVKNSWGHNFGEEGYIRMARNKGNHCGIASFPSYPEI
Chain of Procathepsin L (P07711 whole entry): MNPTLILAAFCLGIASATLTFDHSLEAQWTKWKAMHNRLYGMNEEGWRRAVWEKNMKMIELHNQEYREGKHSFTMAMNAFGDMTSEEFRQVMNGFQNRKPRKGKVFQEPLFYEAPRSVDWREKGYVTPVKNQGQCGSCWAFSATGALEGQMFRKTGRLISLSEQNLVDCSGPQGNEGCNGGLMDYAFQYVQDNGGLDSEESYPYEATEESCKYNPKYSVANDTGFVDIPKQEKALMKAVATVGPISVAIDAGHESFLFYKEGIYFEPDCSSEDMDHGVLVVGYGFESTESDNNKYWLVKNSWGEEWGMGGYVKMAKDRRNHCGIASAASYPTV

IC50 (Cathepsin K [1]) [nM]	IC50 (Cathepsin S) [nM]	IC50 (Cathepsin B) [µM]	IC50 (Bos taurus) [nM]	IC50 (Procathepsin L) [µM]	Ki (Cathepsin K [2]) [nM]	k off [3] [s⁻¹]	Structure (SMILES)
51	41	1.9	–	–	–	–	CC(C)CC(NC(=O)c1ccccc1)C(=O)NCC#N (centres undefined)
9	1240	2.41	162	4.8	–	–	CC(C)CC(C(=O)NCC#N)c1cccc(-c2ccc(N3CCNCC3)cc2)c1 (racemic)
52	922	> 10	249	> 10	–	–	CC(C)CC(C(=O)NCC#N)c1cccc(-c2ccc3[nH]ccc3c2)c1 (racemic)
142	> 10000	> 10	1400	0.825	–	–	CC(C)CC(C(=O)NCC#N)c1cncc(-c2ccccc2)c1 (centres undefined)
79	–	–	–	–	–	–	CC(C)C[C@H](C(=O)NCC#N)c1cccc(-c2ccc3[nH]ccc3c2)c1
1040	> 10000	> 10	–	> 10	–	–	CC(C)CC(C(=O)NCC#N)c1cccc(-c2cncnc2)c1 (centres undefined)
150	1750	> 10	–	5.78	–	–	CC(C)CC(C(=O)N(CC#N)OC(=O)C(F)(F)F)c1cccc(-c2ccncc2)c1 (centres undefined)
56	1580	> 10	3560	0.498	–	–	CC(C)CC(C(=O)NCC#N)c1cccc(-c2ccccc2)c1 (centres undefined)
6	3930	2.6	96	6.27	–	–	CC(C)C[C@@H](C(=O)NCC#N)c1cccc(-c2ccc(N3CCN(C)CC3)cc2)c1
8	1690	3.84	78	4.64	–	–	CC(C)CC(C(=O)NCC#N)c1cccc(-c2ccc(N3CCN(C)CC3)cc2)c1 (racemic)
1400	> 10000	> 10	–	3.91	–	–	CN1CCN(c2ccc(-c3cccc(C(Cc4ccccc4)C(=O)NCC#N)c3)cc2)CC1 (centres undefined)
87	> 10000	> 10	–	> 10	–	–	CCCC(C(=O)NCC#N)c1cccc(-c2ccc(N3CCN(C)CC3)cc2)c1 (centres undefined)
58	521	1.25	–	0.338	–	–	CC(C)CC(C(=O)NCC#N)c1cccc(-c2ccc(C3CNCCN3)cc2)c1 (stereo in doubt; 44)
1460	> 10000	> 10	–	> 10	–	–	CC(C)CC(C(=O)NCC#N)c1csc(-c2ccccc2)n1 (centres undefined)
20	8340	0.379	340	1.67	–	–	CC(C)CC(C(=O)NCC#N)c1cccc(-c2ccc(N3CCN(C(C)(C)C)CC3)cc2)c1 (centres undefined)
614	3370	> 10	2810	0.919	–	–	CC(C)CC(C(=O)NCC#N)c1cccc(-c2ccc(C3CNCCO3)cc2)c1 (centres undefined)
12	609	3.34	–	0.14	–	–	CC(C)CC(C(=O)NCC#N)c1cccc(-c2ccc(N3CCN(CCO)CC3)cc2)c1 (centres undefined)
3	–	–	–	–	10	0.0014	CC(C)CC(C(=O)NC1(C#N)CC1)c1cccc(-c2ccc(N3CCNCC3)cc2)c1 (centres undefined)

IC50 (Cathepsin K [1]) [nM]	IC50 (Cathepsin S) [nM]	IC50 (Cathepsin B) [µM]	IC50 (Bos taurus) [nM]	IC50 (Procathepsin L) [µM]	Ki (Cathepsin K [2]) [nM]	k off [3] [s⁻¹]	Structure (SMILES)
3	2010	3.95	95	3.72	–	–	CC(C)C[C@@H](C(=O)NCC#N)c1cccc(-c2ccc(N3CCNCC3)cc2)c1
1230	6620	> 10	–	> 10	–	–	CC(C)CC(C(=O)NCC#N)c1cccc(-c2ccc(S(C)(=O)=O)cc2)c1 (centres undefined)
> 10000	> 10000	> 10	–	> 10	–	–	CN1CCN(c2ccc(-c3cccc(CC(=O)NCC#N)c3)cc2)CC1
1020	1370	> 10	–	> 10	–	–	CC(C)CC(C(=O)NCC#N)c1cccc(-c2ccc(C(N)=O)cc2)c1 (centres undefined)
8	–	–	–	–	–	–	CC(C)C[C@@H](C(=O)NCC#N)c1cccc(-c2ccc3[nH]ccc3c2)c1
803	8040	> 10	–	5.95	–	–	CC(C)CC(C(=O)NCC#N)c1cccc(-c2cccnc2)c1 (centres undefined)
51	> 10000	5.79	–	> 10	–	–	CC[C@H](C)CC(C(=O)NCC#N)c1cccc(-c2ccc(N3CCN(C)CC3)cc2)c1 (some centres undefined)
488	> 10000	> 10	–	5.58	–	–	CC(C)CC(C(=O)NCC#N)c1cccc(-c2ccccn2)c1 (centres undefined)
216	> 10000	> 10	4870	> 10	–	–	CC(C)CC(C(=O)NCC#N)c1cccc(-c2ccc(C3CNCCN3)cc2)c1 (stereo in doubt; 43)
62	2310	8.05	–	> 10	–	–	CN1CCN(c2ccc(-c3cccc(C(CC4CCC4)C(=O)NCC#N)c3)cc2)CC1 (centres undefined)
97	1360	3.33	1240	8.39	–	–	CC(C)CC(C(=O)NCC#N)c1cccc(-c2ccc(-c3ccncc3)cc2)c1 (centres undefined)
638	9420	1.74	–	1.59	–	–	CC(C)CC(C(=O)NCC#N)c1cccc(-c2ccc(N3CCOCC3)cc2)c1 (centres undefined)
10	2360	0.55	121	2.16	–	–	CC(=O)CN1CCN(c2ccc(-c3cccc(C(CC(C)C)C(=O)NCC#N)c3)cc2)CC1 (centres undefined)
790	3340	> 10	–	> 10	–	–	CC(C)CC(C(=O)NCC#N)c1ccc(-c2ccccc2)cc1 (centres undefined)
18	1420	1.07	489	2.75	–	–	CC(C)CC(C(=O)NCC#N)c1cccc(-c2ccc(C3CCNCC3)cc2)c1 (centres undefined)
291	1260	> 10	2780	–	–	–	CC(C)CC(C(=O)NCC#N)c1cccc(-c2ccc3cc[nH]c3c2)c1 (centres undefined)
65	6600	3.43	–	> 10	–	–	CN1CCN(c2ccc(-c3cccc(C(CC4CC4)C(=O)NCC#N)c3)cc2)CC1 (centres undefined)

Structure (SMILES)	IC50 (Cathepsin K [1]) [nM]	IC50 (Cathepsin S) [nM]	IC50 (Cathepsin B) [µM]	IC50 (Bos taurus) [nM]	IC50 (Procathepsin L) [µM]	Ki (Cathepsin K [2]) [nM]	k off [3] [s⁻¹]
CC(C)CC(C(=O)NCC#N)c1cccc(-c2ccc(N3CCN(CC(C)(C)N)CC3)cc2)c1 (centres undefined)	16	1430	> 10	552	> 10	–	–
CC(C)CC(C(=O)NCC#N)c1cccc(-c2ccc(C34CCN(CC3)CC4)cc2)c1 (centres undefined)	37	1990	2.23	198	2.24	–	–
CC(C)CC(C(=O)NCC#N)c1cccc(-c2ccc(C3=CCNCC3)cc2)c1 (centres undefined)	57	652	0.554	267	1.68	–	–
CC(C)CC(C(=O)NCC#N)c1cccc(-c2ccc(N3CCN(CC(C)(C)O)CC3)cc2)c1 (centres undefined)	6	> 10000	6.37	142	9.55	–	–
CC(C)CC(C(=O)NCC#N)c1cccc(-c2ccc(N3CCN(C(=O)OC(C)(C)C)CC3)cc2)c1 (centres undefined)	922	1300	> 10	–	> 10	–	–
